Experiment [1] has as its system GPX4-KO/FSP1-OE HT1080 cells. Description: Viability of FSP1-dependent GPX4-KO cells with serial dilutions of CPBA, no FINs. The class given is cell-based, human. Conditions: GPX4-KO, FSP1-dependent cells treated with CPBA. The method, then:
The following HT1080 fibrosarcoma cell lines were generated using CRISPR/Cas9 technology, as previously described (Doll et al., 2019): HT1080 GPX4-knockout (KO) cells (maintained in the presence of 100 μM α-tocopherol); HT1080 GPX4 knockout cells overexpressing FSP1 (GPX4-KO/FSP1-OE); GPX4-KO cells overexpressing FSP1 and re-expressing GPX4 (GPX4-KO/FSP1-OE/GPX4-OE); HT1080 FSP1-WT or FSP1-KO cells; and HT1080 FSP1-KO cells reconstituted with either FSP1-WT or FSP1-G2A. LOX-IMVI (BRAF V600E heterozygous human melanoma cells) expressing either the Venus mock vector or FSP1-Venus (Doll et al., 2019) were grown in RPMI-1640 supplemented with 10% FCS, 2 mM L-glutamine and Pen/Strep.
Next, we tested the effect of CPBA on ferroptotic cell death in GPX4-deficient HT1080 cells whose survival depends on the expression of FSP1 in order to suppress ferroptosis in the absence of GPX4. GPX4 knockout cells overexpressing FSP1 (GPX4-KO/FSP1-OE), or GPX4-KO cells overexpressing FSP1 and re-expressing GPX4 (GPX4-KO/FSP1-OE/GPX4-OE) were incubated with serial dilutions of CPBA. Note that no ferroptosis inducers (FINs) were added. Protein expression was confirmed by Western Blot as described above (see FIG. 11).

The test system of the next experiment is HT1080 cells. The experiment is described as follows: Lipid droplet staining with BODIPY 493/503. The note with it: CPBA 100 μM; T863 10 μM and PF-06424439 5 μM; 16 h. The class given is cell-based, human. The method, then:
HT1080 cells were seeded on glass coverslips (15,000 cells per well of 12-well plate) in complete DMEM, and incubated for 16 h with 100 μM CPBA or with 0.1% of the DMSO solvent control, in the absence or presence of inhibitors of DGAT1 and DGAT2 (10 μM T863/iDGAT1; 5 μM PF-06424439/iDGAT2). Cells were fixed with 4% para-formaldehyde, lipid droplets were stained with the neutral lipid droplet stain BODIPY 493/503 (2 μM, 30 min), and nuclei were counterstained with 4′,6-diamidino-2-phenylindole (DAPI). Cells were mounted with Immu-Mount (Fisher Scientific), and imaged by fluorescence microscopy on a THUNDER imager (THUNDER Imager Live Cell & 3D Cell Culture & 3D Assay system, Leica DMI8; Leica Microsystems), using a 63× objective.
We next investigated the impact of CPBA on triglyceride levels and ferroptosis sensitivity by first imaging lipid droplets with the neutral lipid stain BODIPY 493/503.
The diglyceride acyltransferase isoforms 1 and 2 (DGAT1, DGAT2) are required to catalyze the formation of triglycerides from diacylglycerol and acyl-CoA.

Molecules are shown by their SMILES.

Regarding `Clc1cccc(CN=C2Nc3ccccc3NC23CCNCC3)c1` [liproxstatin-1, reference compound], the “prevention of CPBA-induced cell death” value in experiment [1] is on record as “cell death is prevented by liproxstatin-1”. `CS(=O)(=O)O.O=C([C@@H]1CCCN(c2ccc3[nH]c(C4(n5cc(Cl)cn5)CC4)nc3n2)C1)N1CCCC1` [PF-06424439]: the lipid droplets result in the experiment with HT1080 cells is “blocked lipid droplet formation both in DMSO- and in CPBA-treated cells”. Same read-out and setting: the entry for `CC1(C)Oc2ncnc(N)c2N=C1c1ccc([C@H]2CC[C@H](CC(=O)O)CC2)cc1` [T863] is “blocked lipid droplet formation both in DMSO- and in CPBA-treated cells”.

The values are drawn from US20250064762A1, “A SUBSTITUTED AROMATIC DICARBONIC ACID AMIDE AS AN INHIBITOR OF THE FERROPTOSIS SUPPRESSOR PROTEIN-1 (FSP1)” (JULIUS-MAXIMILIANS-UNIVERSITÄT WÜRZBURG, priority 2021, published 2025).
